Earlier results as cited in patent US20100261663A1, “Compositions Containing Harpagoside and Paeoniflorin and Methods for Treatment of Conditions Associated with Pain, Inflammation, Arthritis and Symptoms Thereof” (Restorative Remedies, priority 2009, published 2010).
Read-outs that look alike come from different tables or passages of the source.

Tests used:
[1] = tested on: patients suffering from osteoarthritis of the knee and hip; conditions: 4 months
[2] = tested on: patients with hip and knee osteoarthritis; conditions: after four months; extract 2,610 mg per day, diacerhein 100 mg per day; no significant differences
[3] = for Cmax: human whole blood
[4] = tested on: human intestinal microflora
Salmonella = Salmonella microsome reversion assay
[5] = rats; for Cumulative biliary excretion: within 24 h
[6] = tested on: intestinal bacteria in rat feces
Bacillus subtilis = Bacillus subtilis rec assay
[7] = mice plasma, oral peony root extract
[8] = not given; remark: listed apart in the source
[9] = everted sac, at 60 min
[10] = single oral 43.8 mg harpagoside/600 mg extract (study 1)
[11] = single oral 100 mg harpagoside/400 mg extract (study 1)
[12] = single oral 108 mg harpagoside/1200 mg extract (study 3)
[13] = single oral 150 mg harpagoside/600 mg extract (study 2)
[14] = single oral 162 mg harpagoside/1800 mg extract (study 3)
[15] = single oral 200 mg harpagoside/800 mg extract (study 1)
[16] = 5 mg kg^−1 intravenous, within 72 h

SMILES: CC(=O)Oc1cccc2c1C(=O)c1c(OC(C)=O)cc(C(=O)O)cc1C2=O [diacerhein]
- diarrhea, patients [1]: 26.7%
- Spontaneous pain (10 cm visual analogue scale) ([1]; Harpadol 6 capsules/day, diacerhein 100 mg/day, no difference between treatments): significant improvement
- Lequesne functional index ([1]; no statistical difference between treatments): progressive and significant reduction
- osteoarthritis symptoms [2]: considerable improvements

SMILES: C[C@]1(OC(=O)/C=C/c2ccccc2)C[C@@H](O)[C@]2(O)C=CO[C@@H](O[C@@H]3O[C@H](CO)[C@@H](O)[C@H](O)[C@H]3O)[C@@H]21 [harpagoside]
- harpagoside in whole blood ([3]; after 600 mg Harpagophytum extract in study 3 (54 mg harpagoside), oral): no harpagoside was detected
- Cmax [3, 10]: 15.4 ng/mL
- Cmax [3, 11]: 16.4 ng/mL
- Cmax [3, 12]: 8.2 ng/mL
- Cmax [3, 13]: 32.2 ng/mL
- Cmax [3, 14]: 27.8 ng/mL
- Cmax [3, 15]: 50.1 ng/mL
- clearance ([3]; overall, oral): about 15 L/min
- tmax [3, 10]: 2 h
- AUC(0-t) [3, 11]: 65.9 ng·h/mL
- AUC(0-∞) [3, 11]: 82 ng·h/mL
- CL [3, 11]: 20.3 L/min
- Terminal t1/2 [3, 11]: 3.7 h
- tmax [3, 11]: 2.5 h
- AUC(0-t) [3, 12]: 17.2 ng·h/mL
- tmax [3, 12]: 1.3 h
- AUC(0-t) [3, 13]: 157.5 ng·h/mL
- AUC(0-∞) [3, 13]: 226 ng·h/mL
- CL [3, 13]: 12.2 L/min
- Terminal t1/2 [3, 13]: 5.6 h
- tmax [3, 13]: 1.3 h
- AUC(0-t) [3, 14]: 160.5 ng·h/mL
- AUC(0-∞) [3, 14]: 187.9 ng·h/mL
- CL [3, 14]: 14.4 L/min
- Terminal t1/2 [3, 14]: 4.4 h
- tmax [3, 14]: 1.8 h
- AUC(0-t) [3, 15]: 225.7 ng·h/mL
- AUC(0-∞) [3, 15]: 355.8 ng·h/mL
- CL [3, 15]: 9.4 L/min
- Terminal t1/2 [3, 15]: 6.4 h
- tmax [3, 15]: 2.5 h
- transformation product [4]: transformed into the pyridine monoterpene alkaloid aucubinine B
- LD50 (mice): greater than 13.5 grams per kg of body weight
- biological activity at acidic pH of gastric secretions: significantly reduced

SMILES: C[C@@]12C[C@@]3(O)O[C@@H](O1)[C@]1(COC(=O)c4ccccc4)[C@H]3C[C@@]12O[C@@H]1O[C@H](CO)[C@@H](O)[C@H](O)[C@H]1O [paeoniflorin, 5β-[(Benzoyloxy)methyl]tetrahydro-5-hydroxy-2-Methyl-2,5-methano-1H-3,4-dioxacyclobuta[cd]pentalen-1α(2H)-yl-β-D-glucopyranoside]
- mutagenicity (Salmonella): nonmutagenic
- Cumulative biliary excretion ([5]; 0.5 mg kg^−1 intravenous): 6.9 % of the dose
- Cumulative biliary excretion ([5]; 0.5 mg kg^−1 oral): 1.3 % of the dose
- cumulative fecal excretion [5, 16]: 0.22 % of the dose
- cumulative urinary excretion [5, 16]: 50.5 % of the dose
- cumulative fecal excretion ([5]; 5 mg kg^−1 oral, within 48 h): 0.08 % of the dose
- cumulative urinary excretion ([5]; 5 mg kg^−1 oral, within 48 h): 1.0 % of the dose
- CLtot ([5]; intravenous 0.5 mg kg^−1): 26.1 mL/min/kg
- Vdss ([5]; intravenous 0.5 mg kg^−1): 0.332 L/kg
- mean terminal half-life ([5]; intravenous 0.5 mg kg^−1): 0.183 h
- CLtot ([5]; intravenous 2.0 mg kg^−1): 31.2 mL/min/kg
- Vdss ([5]; intravenous 2.0 mg kg^−1): 0.384 L/kg
- mean terminal half-life ([5]; intravenous 2.0 mg kg^−1): 0.165 h
- CLtot ([5]; intravenous 5.0 mg kg^−1): 30.3 mL/min/kg
- Vdss ([5]; intravenous 5.0 mg kg^−1): 0.423 L/kg
- mean terminal half-life ([5]; intravenous 5.0 mg kg^−1): 0.21 h
- LD50 (Rodent-mouse; Intraperitoneal): 3530 mg/kg
- Toxic Effects (Rodent-mouse; Intraperitoneal): Behavioral-somnolence (general depressed activity)
- LD50 (Rodent-mouse; Intravenous): 9530 mg/kg
- Toxic Effects (Rodent-mouse; Intravenous): Behavioral-sleep. Behavioral-somnolence (general depressed activity)
- metabolites formed [6]: paeonimetabolin-1 (PM-1) and thio-paeonimetabolin-1 (PT-PM-1)
- mutagenicity (Bacillus subtilis): nonmutagenic
- mean terminal half-life (t(1/2)) [7]: 1.569 h
- metabolism in the gut wall ([8]; AUC after intraperitoneal 0.5 mg kg^−1 versus intraportal or intravenous): not metabolized in the gut wall
- hepatic extraction ratio ([8]; intraportal versus intravenous, 0.5 and 5 mg kg^−1): negligible
- mean pulmonary extraction ratio ([8]; venous versus arterial AUC after intravenous 0.5 mg kg^−1): 0.06

SMILES: CCC1(c2ccccc2)C(=O)NC(=O)NC1=O [phenobarbital]
- intestinal permeability [9]: 63.1%
